In brackets after ≈: the same amount, converted by molar mass. Like-named read-outs stand apart in the source and are kept apart here.
How the values were obtained:
Format in all cases: in vivo
[1] = tested on: Mexican bean beetle (Epilachna varivestis, Muls.); assay: Mexican Bean Beetle Leaf Spray Test; details: read-out: Mexican Bean Beetle LD50
Procedure: (§1) Suspensions of the test compounds were prepared by dissolving one gram of compound in 50 milliliters of acetone in which had been dissolved 0.1 gram (10 percent of the weight of compound) of an alkylphenoxy polyethoxyethanol surfactant, as an emulsifying or dispersing agent. The resulting solution was mixed into 150 milliliters of water to give roughly 200 milliliters of a suspension containing the compound in finely divided form. The thusprepared stock suspension contained 0.5 percent by weight of compound. The test concentrations in parts per million by weight employed in the tests described hereinbelow were obtained by appropriate dilutions of the stock suspension with water. The test procedures were as follows:
Mexican Bean Beetle Leaf Spray Test
Fourth instar larvae of the Mexican bean beetle Epilachna varivestis, Muls.), reared on Tendergreen bean plants at a temperature of 80°±5° F. and 50±5 percent relative humidity, were the test insects.
The test compounds were formulated by diluting the stock suspension with water to give a suspension containing 500 parts of test compound per million parts of final formulation. Potted Tendergreen bean plants of standard height and age were placed on a revolving turntable and sprayed with 100-110 milliliters of test compound formulation by use of a DeVilbiss spray gun set at 10 psig air pressure. This application, which lasted 25 seconds, was sufficient to wet plants to run-off. As a control, 100-110 milliliters of a water-acetone-emulsifier solution containing no test compound were also sprayed on infested plants. When dry, the paired leaves were separated and each was placed in a 9 centimeter Petri dish lined with moistened filter paper. Five randomly selected larvae were introduced into each dish, and the dishes were closed. The closed dishes were labeled and held at a temperature of 80°±5° F. for three days. Although the larvae could easily consume the leaf within 24 to 48 hours, no more food was added. Larvae which were unable to move the length of the body, even upon stimulation, were considered dead.
(§2) In these tests the pesticidal activity of the compounds against aphid, mite, Southern Armyworm, Bean Beetle and House Fly was rated as follows:
(§3) Dashes indicate no test conducted.
(§4) The results set forth in TABLE I clearly show the broad spectrum pesticidal activity of the compounds of this invention, as well as their reduced mammalian toxicity. It will be understood that the insect and mite species employed in the above tests are merely representative of a wide variety of pests that can be controlled through the use of the compounds of this invention. A series of comparative tests were conducted to evaluate the relative biological properties of the compounds of the invention and certain prior art compounds. The test procedures employed are identical to those discussed above. The results are reported in the parts per million of the compound required for a 50% kill (LD50).

[2] = tested on: house flies (Musca domestica, L.); assay: Fly Bait Test; details: read-out: Housefly LD50
Procedure: as §1
Four to six day old adult house flies (Musca domestica, L.) reared according to the specifications of the Chemical Specialties Manufacturing Association (Blue Book, McNair-Dorland Co., N.Y. 1954; pages 243-244, 261) under controlled conditions of 80°±5° F. and 50±5 percent relative humidity, were the test insects. The flies were immobilized by anesthetizing with carbon dioxide and twenty five immobilized individuals, males and females, were transferred to a cage consisting of a standard food strainer about five inches in diameter which was inverted over a wrapping-paper-covered surface. The test compounds were formulated by diluting the stock suspension with a 10 percent (by weight) sugar solution to give a suspension containing 500 parts of test compound per million parts of final formulation, by weight. Ten milliliters of the test formulation were added to a souffle cup containing a one-inch square of an absorbent cotton pad. This bait cup was introduced and centered on the blotting paper under the food strainer prior to admitting the anesthetized flies. The caged flies were allowed to feed on the bait for 24 hours, at a temperature of 80°±5° F. and the relative humidity of 50±5 percent.
as §2, §3, §4

[3] = tested on: southern armyworm (Prodenia eridania, (Cram.)); assay: Southern Armyworm Leaf Spray Test; details: Spodoptera eridania, read-out: Southern Armyworm LD50
Procedure: as §1
Southern Armyworm Leaf Spray Test
Larvae of the southern armyworm (Prodenia eridania, (Cram.)), reared on Tendergreen bean plants at a temperature of 80°±5° F. and a relative humidity of 50±5 percent, constituted the test insects.
The test compounds were formulated by diluting the stock suspension with water to given a suspension containing 500 parts of test compound per million parts of final formulation. Potted Tendergreen bean plants of standard height and age were placed on a revolving turntable and sprayed with 100-110 milliliters of test compound formulation by use of a DeVilbiss spray gun set at 10 psig air pressure. This application, which lasted 25 seconds, was sufficient to wet plants to run-off. As a control, 100-110 milliliters of a water-acetone-emulsifier solution containing no test compound were also sprayed on infested plants. When dry, the paired leaves were separated and each one was placed in a 9 centimeter Petri dish lined with moistened filter paper. Five randomly selected larvae were introduced into each dish and the dishes were closed. The closed dishes were labeled and held at 80°-85° F. for three days. Although the larvae could easily consume the whole leaf within 24 hours, no more food was added. Larvae which were unable to move the length of the body, even upon stimulation by prodding, were considered dead. Percent mortality was recorded for various concentration levels.
as §2, §3, §4

[4] = tested on: bean aphid (Aphis fabae Scop.); assay: Bean Aphid Foliage Spray Test; details: foliar, read-out: Aphid LD50
Procedure: as §1
Bean Aphid Foliage Spray Test
Adults and nymphal stages of the bean aphid (Aphis fabae Scop.) reared on potted dwarf nasturtium plants at 65°-70° F. and 50-70 percent relative humidity, constituted the test insects. For testing purposes, the number of aphids per pot was standardized to 100-150 by trimming plants containing excess aphids.
The test compounds were formulated by diluting the stock suspension with water to give a suspension containing 500 parts of test compound per million parts of final formulation.
The potted plants (one pot per compound tested) infested with 100-150 aphids, were placed on a revolving turntable and sprayed with 100-110 milliliters of test compound formulation by use of a DeVilbiss spray gun set at 40 psig. air pressure. This application, which lasted 25 seconds, was sufficient to wet the plants to run-off. As a control, 100-110 milliliters of a water-acetone-emulsifier solution containing no test compound were also sprayed on infested plants. After spraying, the pots were placed on their sides on a sheet of white standard mimeograph paper which had been previously ruled to facilitate counting. Temperature and humidity in the test room during the 24 hour holding period were 65°-70° F. and 50-70 percent, respectively. Aphids which fell onto the paper and were unable to remain standing after being uprighted were considered dead. Aphis remaining on the plants were observed closely for movement and those which were unable to move the length of the body upon stimulation by prodding were considered dead. Percent mortality was recorded for various concentration levels.
as §2, §3, §4

[5] = peroral toxicity to mammals (rat LD50); details: rat, in vivo, po, rat
Procedure: (§5) Certain of these compositions were also evaluated to determine their peroral toxicity to mammals. The animal selected for this experiment was the rat. The test results obtained are expressed in terms of the number of milligrams of compositions per kilogram of weight of the animal required to achieve a mortality rate of 50 percent (LD50).
as §4

[6] = tested on: rat; assay: peroral toxicity to mammals (rat LD50); details: for times less toxic to mammals than compound 1: rat LD50 relative to compound 1; for times less toxic to mammals than compound 2: rat LD50 relative to compound 2
Procedure: as §5, §4

[7] = concentration required for a 50% kill, comparative test
[8] = comparative test, read-out: Rat LD50 (Table II)
[9] = peroral, mortality rate of 50 percent, read-out: Rat LD50 (Table I)

SMILES	LC50 [1, 7] [µg/mL]	LC50 [2, 7] [µg/mL]	LC50 [3, 7] [µg/mL]	LC50 [4, 7] [µg/mL]	LD50 [5, 8] [mg/kg]	LC50 [1] [µg/mL]	LC50 [2] [µg/mL]	LC50 [3] [µg/mL]	LC50 [4] [µg/mL]	times less toxic to mammals than compound 1 [6]	times less toxic to mammals than compound 2 [6]	LD50 [5, 9] [mg/kg]	times less toxic to mammals as compound 2 (first of the two statements for compound 4) ([6]; rat LD50, printed relative to compound 2)
CNC(=O)Oc1cccc2c1OC(C)(C)C2 [Compound 1, 2,3-dihydro-2,2-dimethyl-7-benzofuranyl methyl carbamate, reference compound]	12 (≈ 54.2 µM)	12 (≈ 54.2 µM)	90 (≈ 407 µM)	2 (≈ 9.04 µM)	5								
CN(SN(C)C(=O)Oc1cccc2c1OC(C)(C)C2)C(=O)Oc1cccc2c1OC(C)(C)C2 [Compound 2, reference compound]					6.3	2 (≈ 4.23 µM)	30 (≈ 63.5 µM)	13 (≈ 27.5 µM)	1 (≈ 2.12 µM)				
CC(C)c1cccc(OC(=O)N(C)SN(C)C(=O)Oc2cccc3c2OC(C)(C)C3)c1 [Compound 3, [2,2-Dimethyl-2,3-dihydro-7-benzofuranyl methylcarbamate]N-[3-isopropylphenyl methylcarbamate]sulfide]					80	3 (≈ 6.75 µM)	22 (≈ 49.5 µM)	20 (≈ 45 µM)	1 (≈ 2.25 µM)	at least 16 times	at least 13 times	80	
CN(SN(C)C(=O)Oc1cccc2c1OC(C)(C)C2)C(=O)Oc1ccc(C(C)(C)C)cc1 [Compound 4, [2,2-Dimethyl-2,3-dihydro-7-benzofuranyl methylcarbamate]N-[4-t-butylphenylmethylcarbamate]sulfide]					45	18 (≈ 39.3 µM)	17 (≈ 37.1 µM)	23 (≈ 50.2 µM)	2 (≈ 4.36 µM)		seven	45	nine
CN(SN(C)C(=O)Oc1cccc2c1OC(C)(C)C2)C(=O)Oc1ccc([N+](=O)[O-])cc1 [Compound 5]					25.2	4 (≈ 8.94 µM)	45 (≈ 101 µM)	20 (≈ 44.7 µM)	2 (≈ 4.47 µM)	five	four		
CN(SN(C)C(=O)Oc1cccc2c1OC(C)(C)C2)C(=O)Oc1ccc([N+](=O)[O-])cc1 [[2,2-Dimethyl-2,3-dihydro-7-benzofuranyl methylcarbamate]N-(4-nitrophenyl methylcarbamate]sulfide]												25	
CSc1ccc(OC(=O)N(C)SN(C)C(=O)Oc2cccc3c2OC(C)(C)C3)cc1C [[2,2-Dimethyl-2,3-dihydro-7-benzofuranylmethylcarbamate]N-[3-methyl-4-methylthiophenyl methylcarbamate]sulfide]												18	
